According to US11547685B2, “Using probenecid to treat polycystic kidney disease” (Mayo Foundation for Medical Education and Research, priority 2017, dated 2023):
“And” between values parts separate entries of the source, which are not always exact repeats. Equal values may be shown once. “Also recorded” adds a separate entry of the source.

What was measured:
mIMCD3 cells [1] = assay: cAMP ELISA assay; format: cell-based, mouse
Method: FIG. 4. Probenecid enhances the intracellular accumulation of cAMP generated in response to forskolin. Wild type mIMCD3 cells were grown in 6 wells plate to confluence for at least 5 days then treated with either forskolin (10 μM) alone, probenecid alone (500 μM; PB 500), or forskolin (FSK) with probenecid (100 μM, PB100; 250 μM, PB250; and 500 μM, PB500). cAMP was measured by ELISA assay (pmol/mg of protein). […] Cells were grown in 6-wells culture dishes and incubated for at least 5 days post confluence. Cells were collected then homogenized in 0.1 M HCl. The protein concentration was measured by using BCA Protein Assay Kit. After centrifugation, the supernatant was further diluted in 0.1 M HCl. cAMP content was assessed by enzyme-linked immunosorbent assay. The results were expressed in picomoles per milligram of protein. Probenecid inhibited MRP1 mediated efflux of cAMP.

mIMCD3 cells [2] = assay: Three dimensional (3D) cystogenesis assay, forskolin-induced; format: cell-based, mouse; conditions: for reduction in cyst size: 5 days
Method: FIG. 2. Probenecid reduces forskolin-induced cystogenesis. mIMCD3 cells were grown in 3D matrigel-based extracellular matrix system and incubated with defined medium (control)+/−forskolin (10 μM) and probenecid (500 μM and 1000 μM) for 5 days. Cysts were imaged using an inverted phase microscope, and cyst size was quantified by measuring cyst diameter using Image J software and reported as cyst surface area (μm^2). Forskolin induced cystogenesis in wild type. […] FIG. 3. Probenecid reduces forskolin induced in vitro cystogenesis. As described in FIG. 3, cells were grown in matrigel based system for 5 days. All four groups shown were stimulated with 10 μM of forskolin. Different doses of probenecid were compared. A dose effect was seen as higher dose of probenecid were more efficacious in reducing cyst growth when stimulated with forskolin. […] 3D matrix was prepared by mixing 1:1 matrigel with defined medium (DMEM, 25 μg/L EGF, 5 μg/mL insulin, 5 μg/mL transferrin, 5 ng/mL selenium, penicillin, streptomycin, 5×10^−12 M triiodothyronine, and 5×10^−8 M hydrocortisone). Cells were mixed with the extracellular matrix and grown in 96-wells plate (8000-10000 cells per well). The desired drug concentration (forskolin 10 μM, probenecid 500-1000 μM) was added to the medium and changed on a daily basis. Images of the wells were taken daily by an inverted phase contrast microscope. Images from day 5 were analyzed using Image J software. Cyst surface was calculated using cyst diameter. mIMCD3 cells were grown in three dimensional matrix-based extracellular matrix. When stimulated with forskolin, these cells grew to form multiple cysts. […] The cyst reduction may be due to inhibition of cell proliferation, inhibition of chloride driven fluid secretion, or both.

mIMCD3 cells [3] = assay: Time-lapse imaging of cytoplasmic calcium with Gcamp6s biosensor; format: cell-based, mouse; conditions: probenecid 1000 μM, mIMCD3 cells stably transfected with Gcamps6s
Method: FIG. 1B. Probenecid increases intracytoplasmic calcium in mouse inner medullary collecting duct cells (mIMCD3). mIMCD3 cells were stably transfected with […] (cytoplasmic calcium genetically encoded biosensor) and grown on 35 mm glass bottom dish for at least 5 days post confluence then imaged under confocal microscopy every 3 seconds. Probenecid (1000 μM) was added to the medium at 10.5 minutes as noted by the blue bar. Fluorescence changes of a region of interest (ROI) in each cell are analyzed in Zen software and reported as a ratio of fluorescence over baseline fluorescence of each ROI (F/F0). An increase in F/F0 indicates relative increase in cytoplasmic calcium. Probenecid increased cytoplasmic calcium by 4-6 folds compared to baseline calcium. Two representative images at baseline and at peak increase of cytoplasmic calcium are shown. Mouse inner medullary collecting duct immortalized cell lines were used (mIMCD3): wild type (WT) or with a knockout of Pkd1 (Pkd^1-/-) or Pkd2 (Pkd^2-/-). WT cells were transfected with GCamp6s by electroporation (Bio Rad Gene pulser Xcell). […] Time lapses (every 3 seconds) were captured on Zeiss confocal microscope (LSM-780) and analyzed on Zeiss Zen Pro software. […] Fluorescence changes of a region of interest (ROI) in each cell were analyzed in Zen software and reported as a ratio of fluorescence over baseline fluorescence of each ROI (F/F0). […]

mIMCD3 cells [4] = assay: Proliferation assay (Incucyte confluence); format: cell-based, mouse; conditions: 7 days
Method: FIG. 5. Probenecid inhibits proliferation in mICMD3 cells. mIMCD3 cells were grown in 96 wells plate (2500 […]) for 7 days and imaged every 4 hours in an incubator-based imaging system (Incucyte). Confluence was measured at each time point. Cells were treated with defined medium (control), forskolin (FSK) 10 μM, or probenecid (PB) 500 μM and 1000 μM. Control and forskolin (FSK 10 μM) groups reached confluence faster when compared to probenecid alone or probenecid with forskolin. […] Cells were seeded in 96 wells plate (2500 cells/well) and grown for 7 days. Images were taken by an incubator-based microscope (Incucyte) every 4 hours and analyzed for confluence. Probenecid inhibited proliferation in a dose dependent manner. Cells were grown and imaged for 7 days in an incubator-based imaging system (IncuCyte) and analyzed for confluence.

embryonic kidneys = assay: Forskolin-induced cystogenesis in cultured embryonic kidneys; conditions: E13.5 kidneys, forskolin-stimulated, probenecid 500 μM, day 5
Method: FIG. 6 contains photographs showing that probenecid (500 μM) dramatically reduces cystogenesis in embryonic kidneys. Embryonic kidneys were harvested at E13.5 (embryos were 13-14 days old in utero). These kidneys were harvested and cultured on filters and stimulated with forskolin to induce cysts.

[5] = system: Pkd1^RC/RC PKD mouse model; assay: PKD mouse model Pkd1RC/RC, kidney weight/body weight; format: in vivo; conditions: Pkd1^RC/RC mice, 0.03 mg in 100 mg of chow, treated from age 4 weeks to 12 weeks
Method: The PKD mouse model, Pkd1^RC/RC, was used in this experiment. Probenecid (0.03 mg in 100 mg of chow), tolvaptan (0.03 mg in 100 mg of chow), or the combination of tolvaptan and probenecid were mixed with the food. […] The treatment started from age 4 weeks to 12 weeks. Mice were sacrificed, and the kidney weight (KW) was measured then standardized to body weight (BW). KW/BW ratio was an established method to report an effect of therapy in ADPKD mouse models.

SMILES	intracellular cAMP, probenecid combined with forskolin versus forskolin alone (mIMCD3 cells [1]; wild type mIMCD3, forskolin 10 μM plus probenecid 100, 250, 500 μM)	intracellular cAMP, probenecid alone (mIMCD3 cells [1]; wild type mIMCD3, probenecid 500 μM, no forskolin)	reduction in cyst size (mIMCD3 cells [2]; probenecid 500 μM with forskolin 10 μM)	reduction in cyst size (mIMCD3 cells [2]; probenecid 1000 μM with forskolin 10 μM)	reduction of cystic burden in 3D in vitro cystogenesis assay (mIMCD3 cells [2]; summary statement)	cystogenesis with probenecid alone (mIMCD3 cells [2]; without forskolin)	increase in cytoplasmic calcium (F/F0) compared to baseline calcium (mIMCD3 cells [3])	proliferation (confluence) (mIMCD3 cells [4]; Pkd2 null mIMCD3, probenecid 1000 μM alone)	proliferation (confluence) (mIMCD3 cells [4]; wild type mIMCD3, probenecid 500 and 1000 μM)	cyst formation in embryonic kidney culture (embryonic kidneys)	mean KW/BW ratio [5]
CCCN(CCC)S(=O)(=O)c1ccc(C(=O)O)cc1 [probenecid, 4-(dipropyl-sulfamoyl) benzoic acid]	increased cAMP levels in a dose dependent fashion	did not increase cAMP	68.4%	82.6%	more than 80%	did not induce any cystogenesis	4-6 fold and 4- to 6 fold	most completely inhibited proliferation	significantly inhibited proliferation	significantly inhibited; also recorded: almost completely prevents cyst formation	2.56% (±0.42)
Cc1ccccc1C(=O)Nc1ccc(C(=O)N2CCCC(O)c3cc(Cl)ccc32)c(C)c1 (stereo not drawn) [tolvaptan]	–	–	–	–	–	–	–	–	–	–	2.07% (±0.42)
